Series [1] has as its system MRC-5 cell line. Description: Cell viability assay for MRC-5 cell line. As to conditions: for IC50: Homo sapiens, MRC5, 120 h, read-out: Activity: IC50 value (nM) to MRC-5 cell line.
Description: (§1) Cell Viability Assay for MRC-5 Cell Line
(1) Culture of MRC-5 Cell Line
(§2) The MRC-5 cell line was purchased from Korea Cell Line Bank (KCLB), Seoul, Korea. Passage of cultured cells was maintained within P15.
(§3) (2) Treatment of Compounds of the Present Invention
(§4) 6×10^3 cells were seeded for each well of a 96-well plate (SPL), and the cells were cultured in total volume of 150 μL.
(§5) Each well was mixed with a medium and treated, and the volume was set to 50 μL, so that the total volume of each well was 200 μL. Then, it was cultured in 37° C.
(§6) The following compounds were used as comparative examples, and the cell viability assay was performed in the same manner as in the compounds of Examples.
(3) Cytotoxicity Experiment
(§7) After treating EZ-Cytox (DOGEN, Cat. NO. EZ-3000, Lot. No. DLS2112) 20 μL in each well of completely cultured plate, it was cultured in 37° C. CO2 incubator for 4 hours. […] The data were converted into graphs using the Prism (ver. 9) program.
Series [2] has as its target T1, PLK1 (Homo sapiens, UniProt P53350).
T1 construct: endogenous in cells; host or cells: HeLa cells stably expressing LgBit, with CRISPR/Cas9 knock-in of HiBit at the endogenous PLK1 locus
Put plainly: Luciferase assay for PLK1 in HeLa LgBit (Plk1-HiBit KI) cell line. Particulars: 300 nM compound, luminescence after 9 hours. In kind it is cell-based. The method in brief:
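HeLa LgBit cells with endogenous Plk1 C-terminally HiBiT-tagged by CRISPR knock-in were synchronized by 2 mM thymidine block for 24 h, then released and seeded. After 18 h, Endurazine was added and compounds were dosed at 300 nM. Luminescence was tracked in real time; activity is the ratio to DMSO.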
For orientation: The HiBiT peptide binds its large partner to form an active luciferase.

For series [3], the system named is H526 cell line. Put plainly: Cell viability assay for H526 cell line. As to conditions: Homo sapiens, NCI-H526, 120 h; H526 cells, 5 days, EZ-Cytox, 0.46-3000 nM. In kind it is cell-based. The method in brief:
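NCI-H526 cells exposed to compounds for 5 days in a CO2 incubator; viability read as absorbance at 450 nm after 3 min plate shaking; IC50 derived from treatment response.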

A short description of series [4]: Cell viability assay for MRC-5 cell line. Particulars: human.
Description: as §1
(1) Culture of MRC-5 Cell Line
as §2, §3, §4, §5, §6
(3) Cytotoxicity Experiment
as §7

The values that follow come from patent US11939334B2, “Substituted pyrimido[4,5-b][1,4]diazepines as PLK1 degradation inducers” (UPPTHERA, INC., priority 2021, dated 2024).

As a reminder, the IC50 is the concentration needed to halve the response being measured.

T1 sequence (P53350 whole entry): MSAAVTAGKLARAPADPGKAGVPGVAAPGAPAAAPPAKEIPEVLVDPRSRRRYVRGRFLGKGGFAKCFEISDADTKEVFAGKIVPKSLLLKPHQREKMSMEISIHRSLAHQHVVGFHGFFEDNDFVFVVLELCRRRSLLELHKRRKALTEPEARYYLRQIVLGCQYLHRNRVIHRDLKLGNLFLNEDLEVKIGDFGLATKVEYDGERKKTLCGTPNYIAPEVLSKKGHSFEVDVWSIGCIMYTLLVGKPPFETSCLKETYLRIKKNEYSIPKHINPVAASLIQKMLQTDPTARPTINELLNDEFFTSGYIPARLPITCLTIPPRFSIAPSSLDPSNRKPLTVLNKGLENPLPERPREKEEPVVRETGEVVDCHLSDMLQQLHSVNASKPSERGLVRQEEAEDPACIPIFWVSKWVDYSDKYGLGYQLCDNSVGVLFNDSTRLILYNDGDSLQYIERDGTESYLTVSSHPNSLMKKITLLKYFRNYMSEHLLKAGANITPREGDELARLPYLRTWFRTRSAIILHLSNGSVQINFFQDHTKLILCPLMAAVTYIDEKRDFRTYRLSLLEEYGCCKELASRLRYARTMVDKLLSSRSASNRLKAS

In the case of `CC[C@@H]1C(=O)N(C)c2cnc(Nc3ccc(C(=O)NCCOCCOCCNc4cccc5c4C(=O)N(C4CCC(=O)NC4=O)C5=O)cc3OC)nc2N1C1CCCC1` (stereo partly shown) [Comparative Compound 1, reference compound], the “cytotoxicity in normal cell line (in words)” value in series [1] (MRC-5 cell line) was “high level of cytotoxicity in normal cell line”.
`COc1cc(C(=O)NC2CC(N(C)CCC3CCN(c4cccc(C5CCC(=O)NC5=O)c4)CC3)C2)ccc1Nc1ncc2c(n1)N(C(C)C)CC1(CC1)C(=O)N2C` (stereo not shown) [Compound 6, N-(3-((2-(1-(3-(2,6-dioxopiperidin-3-yl)phenyl)piperidin-4-yl)ethyl)(methyl)amino)cyclobutyl)-4-((9′-isopropyl-5′-methyl-6′-oxo-5′,6′,8′,9′-tetrahydrospiro[cyclopropane-1,7′-pyrimido[4,5-b][1,4]diazepin]-2′-yl)amino)-3-methoxybenzamide]: the “Activity: ratio of the luminescence value of each Exemplary Compound treatment group to DMSO treatment group” value (shortened to “Activity: ratio”) in series [2] is on record as “++ (++ <0.6)”. The figures for the IC50 in series [3] and in series [1] were under 400 nM and 12300 nM, respectively.
As to `COc1cc(C(=O)NC2CCC(N(C)CC3CCN(c4ccc(C5CCC(=O)NC5=O)cc4F)CC3)CC2)ccc1Nc1ncc2c(n1)N(C(C)C)CC(F)(F)C(=O)N2C` (stereo not shown) [Compound 7, 4-((7,7-difluoro-9-isopropyl-5-methyl-6-oxo-6,7,8,9-tetrahydro-5H-pyrimido[4,5-b][1,4]diazepin-2-yl)amino)-N-((1r,4r)-4-(((1-(4-(2,6-dioxopiperidin-3-yl)-2-fluorophenyl)piperidin-4-yl)methyl)(methyl)amino)cyclohexyl)-3-methoxybenzamide], the “Activity: ratio” value in series [2] is “+++ (+++: <0.3)”. For the same compound, the values for the IC50 in series [3] and in series [1] were under 30 nM and 13000 nM, respectively.
With `COc1cc(C(=O)N[C@H]2CC[C@H](N(C)CCN3CCN(c4ccc(C5CCC(=O)NC5=O)cc4F)CC3)CC2)ccc1Nc1ncc2c(n1)N(C(C)C)CC(F)(F)C(=O)N2C` (stereo partly shown) [Compound 9, 4-((7,7-difluoro-9-isopropyl-5-methyl-6-oxo-6,7,8,9-tetrahydro-5H-pyrimido[4,5-b][1,4]diazepin-2-yl)amino)-N-((1r,4r)-4-((2-(4-(4-(2,6-dioxopiperidin-3-yl)-2-fluorophenyl)piperazin-1-yl)ethyl)(methyl)amino)cyclohexyl)-3-methoxybenzamide], in series [2], the “Activity: ratio” value is “++ (++ <0.6)”. Moreover, the IC50 was under 50 nM in series [3] and 16600 nM in series [1].
Regarding `COc1cc(C(=O)N[C@H]2CC[C@H](N(C)CCN3CCN(c4c(F)cc(C5CCC(=O)NC5=O)cc4F)CC3)CC2)ccc1Nc1ncc2c(n1)N(C(C)C)CC(F)(F)C(=O)N2C` (stereo partly shown) [Compound 10, 4-((7,7-difluoro-9-isopropyl-5-methyl-6-oxo-6,7,8,9-tetrahydro-5H-pyrimido[4,5-b][1,4]diazepin-2-yl)amino)-N-((1r,4r)-4-((2-(4-(4-(2,6-dioxopiperidin-3-yl)-2,6-difluorophenyl)piperazin-1-yl)ethyl)(methyl)amino)cyclohexyl)-3-methoxybenzamide], the “Activity: ratio” value in series [2] is “++ (++ <0.6)”. Moreover, the figures for the IC50 in series [3] and in series [1] were under 50 nM and 15600 nM, respectively.
Consider `COc1cc(C(=O)NC2CCN(CC3CN(c4ccc(C5CCC(=O)NC5=O)cc4F)C3)CC2)ccc1Nc1ncc2c(n1)N(C(C)C)CC(F)(F)C(=O)N2C` (stereo not shown) [Compound 12, 4-((7,7-difluoro-9-isopropyl-5-methyl-6-oxo-6,7,8,9-tetrahydro-5H-pyrimido[4,5-b][1,4]diazepin-2-yl)amino)-N-(1-((1-(4-(2,6-dioxopiperidin-3-yl)-2-fluorophenyl)azetidin-3-yl)methyl)piperidin-4-yl)-3-methoxybenzamide], for which the “Activity: ratio” value in series [2] is recorded as “++ (++ <0.6)”. Also, the IC50 is under 50 nM in series [3] and 24600 nM in series [1].
The like results for `COc1cc(C(=O)NC2CC3(CCN(CC4CCN(c5ccc(C6CCC(=O)NC6=O)cc5F)CC4)CC3)C2)c(F)cc1Nc1ncc2c(n1)N(C(C)C)CC(F)(F)C(=O)N2C` (stereo not shown) [Compound 14, 4-((7,7-difluoro-9-isopropyl-5-methyl-6-oxo-6,7,8,9-tetrahydro-5H-pyrimido[4,5-b][1,4]diazepin-2-yl)amino)-N-(7-((1-(4-(2,6-dioxopiperidin-3-yl)-2-fluorophenyl)piperidin-4-yl)methyl)-7-azaspiro[3.5]nonan-2-yl)-2-fluoro-5-methoxybenzamide] were, in that order, “++ (++ <0.6)”, under 50 nM and 14700 nM.
In the case of `COc1cc(C(=O)NC2CC3(CCN(CC4CCN(c5c(F)cc(C6CCC(=O)NC6=O)cc5F)CC4)CC3)C2)ccc1Nc1ncc2c(n1)N(C(C)C)CC(F)(F)C(=O)N2C` (stereo not shown) [Compound 15, 4-((7,7-difluoro-9-isopropyl-5-methyl-6-oxo-6,7,8,9-tetrahydro-5H-pyrimido[4,5-b][1,4]diazepin-2-yl)amino)-N-(7-((1-(4-(2,6-dioxopiperidin-3-yl)-2,6-difluorophenyl)piperidin-4-yl)methyl)-7-azaspiro[3.5]nonan-2-yl)-3-methoxybenzamide], the “Activity: ratio” value in series [2] is on record as “++ (++ <0.6)”. In addition, the IC50 is under 30 nM in series [3] and 17700 nM in series [1].
As to `COc1cc(C(=O)NC2CC3(CCN(CC4CCN(c5ccc(C6CCC(=O)NC6=O)cc5)CC4)CC3)C2)ccc1Nc1ncc2c(n1)N(C(C)C)CC(F)(F)C(=O)N2C` (stereo not shown) [Compound 19, 4-((7,7-difluoro-9-isopropyl-5-methyl-6-oxo-6,7,8,9-tetrahydro-5H-pyrimido[4,5-b][1,4]diazepin-2-yl)amino)-N-(7-((1-(4-(2,6-dioxopiperidin-3-yl)phenyl)piperidin-4-yl)methyl)-7-azaspiro[3.5]nonan-2-yl)-3-methoxybenzamide], in series [2], the “Activity: ratio” value is “++ (++ <0.6)”. Moreover, the IC50 is under 30 nM in series [3] and 13100 nM in series [1].
In the case of `Cc1cc(C(=O)NC2CC3(CCN(CC4CCN(c5ccc(C6CCC(=O)NC6=O)cc5F)CC4)CC3)C2)c(F)cc1Nc1ncc2c(n1)N(C(C)C)CC(F)(F)C(=O)N2C` (stereo not shown) [Compound 21, 4-((7,7-difluoro-9-isopropyl-5-methyl-6-oxo-6,7,8,9-tetrahydro-5H-pyrimido[4,5-b][1,4]diazepin-2-yl)amino)-N-(7-((1-(4-(2,6-dioxopiperidin-3-yl)-2-fluorophenyl)piperidin-4-yl)methyl)-7-azaspiro[3.5]nonan-2-yl)-2-fluoro-5-methylbenzamide], in series [2], the “Activity: ratio” value is reported as “++ (++ <0.6)”. Moreover, the values for the IC50 in series [3] and in series [1] were under 50 nM and 12600 nM, respectively.
For the compound `COc1cc(C(=O)NC2CCC(CCN3CCN(c4ccc(C5CCC(=O)NC5=O)cc4F)CC3)CC2)ccc1Nc1ncc2c(n1)N(C(C)C)CC(F)(F)C(=O)N2C` (stereo not shown) [Compound 43, 4-((7,7-difluoro-9-isopropyl-5-methyl-6-oxo-6,7,8,9-tetrahydro-5H-pyrimido[4,5-b][1,4]diazepin-2-yl)amino)-N-((1r,4r)-4-(2-(4-(4-(2,6-dioxopiperidin-3-yl)-2-fluorophenyl)piperazin-1-yl)ethyl)cyclohexyl)-3-methoxybenzamide], in series [2], the “Activity: ratio” value is on record as “+++ (+++: <0.3)”. In series [3], this compound had an IC50 of under 30 nM. This compound displayed an IC50 at 5 days in series [4] (MRC-5 cells (normal cell line)) of over 10 µM.
The like results for `COc1cc(C(=O)NC2CC(N(C)CC3CCN(c4ccc(C5CCC(=O)NC5=O)cc4F)CC3)C2)ccc1Nc1ncc2c(n1)N(C(C)C)CC(F)(F)C(=O)N2C` (stereo not shown) [Compound 44, 4-((7,7-difluoro-9-isopropyl-5-methyl-6-oxo-6,7,8,9-tetrahydro-5H-pyrimido[4,5-b][1,4]diazepin-2-yl)amino)-N-(3-(((1-(4-(2,6-dioxopiperidin-3-yl)-2-fluorophenyl)piperidin-4-yl)methyl)(methyl)amino)cyclobutyl)-3-methoxybenzamide] were, in that order, “+++ (+++: <0.3)”, under 30 nM and over 10 µM.
With `COc1cc(C(=O)NN2CCC(CCN3CCN(c4ccc(C5CCC(=O)NC5=O)cc4F)CC3)CC2)ccc1Nc1ncc2c(n1)N(C(C)C)CC(F)(F)C(=O)N2C` (stereo not shown) [Compound 45, 4-((7,7-difluoro-9-isopropyl-5-methyl-6-oxo-6,7,8,9-tetrahydro-5H-pyrimido[4,5-b][1,4]diazepin-2-yl)amino)-N-(4-(2-(4-(4-(2,6-dioxopiperidin-3-yl)-2-fluorophenyl)piperazin-1-yl)ethyl)piperidin-1-yl)-3-methoxybenzamide], the “Activity: ratio” value in series [2] is given as “+++ (+++: <0.3)”. The same compound came in with an IC50 in series [3] of under 30 nM. Further, in series [4] (MRC-5 cells (normal cell line)), the IC50 at 5 days was over 10 µM.
As to `COc1cc(C(=O)NC2CC23CCN(CC2CCN(c4ccc(C5CCC(=O)NC5=O)cc4F)CC2)CC3)ccc1Nc1ncc2c(n1)N(C(C)C)CC(F)(F)C(=O)N2C` (stereo not shown) [Compound 46, 4-((7,7-difluoro-9-isopropyl-5-methyl-6-oxo-6,7,8,9-tetrahydro-5H-pyrimido[4,5-b][1,4]diazepin-2-yl)amino)-N-(6-((1-(4-(2,6-dioxopiperidin-3-yl)-2-fluorophenyl)piperidin-4-yl)methyl)-6-azaspiro[2.5]octan-1-yl)-3-methoxybenzamide], in series [2], the “Activity: ratio” value is recorded as “+++ (+++: <0.3)”. The IC50 in series [3] was under 100 nM. The compound also came in with an IC50 at 5 days in series [4] of over 10 µM.
